# Experimental data: patent US9226929B2, “Pharmaceutically active disubstituted triazine derivatives” (Bayer Intellectual Property GMBH, priority 2011, dated 2016)
# pIC50, pKd: −log10 of the molar value.
# Experiments:
# [1] = system: NF-kappaB reporter gene activation; assay: NF-kappaB Reporter Assay; type: cell-based; conditions: Homo sapiens; HEK293 cells, pNFkBluc reporter, 20 ng/ml TNF alpha, 5 h; read-out: NF-kappaB activation (activity range), IC50
# Procedure: 3.2 NF-kappaB Reporter Assay
# Cells were maintained in RPMI cell culture medium+glutamine (PAN Biotech GmbH, Aidenbach, Germany) supplemented with 10% fetal calf serum (PAA Laboratories GmbH, Pasching, Austria) and grown at 37° C., 5% CO2. HEK293 cells grown to 50% confluence were transfected with the Amaxa® Cell Line Nucleofector® Kit V (Lonza, Basel, Switzerland, catalog #VCA-1003). Transfections were performed according to manufacturer's optimized protocol for transfection of HEK293 cells. In brief, 2×10^5 cells were transfected with 5 μg highly purified plasmid DNA. Cells were transfected with a NF-kappa B reporter plasmid (pNFkBluc), pTALluc for control, or pMAXGFP for transfection control. After transfection, cells were taken up in 500 μL RPMI1640 cell culture medium, incubated for 1 h at 37° C., and 4.5 ml DMEM without phenol red were added per transfection. Transfected cells were seeded in 96 well plates (Greiner Bio-One, Frickenhausen, Germany, catalog #655098) with 100 μL cell suspension per well and incubated for 48 h. To each well, 100 μL DMEM with 2× concentrated compound diluted from 10 mM DMSO stocks, or 100 μL DMEM with 0.4% DMSO for control wells, was added. The compounds of general formula (I) summarized in Table 6 were used in this assay. Cells were stimulated with 20 ng/ml TNF alpha, and plates were incubated for 5 h at 37° C./5% CO2. Cell culture supernatants were removed to leave 100 μl medium per well, followed by addition of 100 μl Bright Glo luciferase assay reagent (Promega, Madison, Wis., USA, catalog #E2620), and shaking for 5 minutes in the dark. Luminescence was measured with a Victor Photospectrometer (Perkin Elmer, Waltham, Mass., USA). IC50 values were calculated with the software Excel Fit (IDBS, Guildford, UK) from 2-fold dilution series comprising at least 10 concentrations in duplicates.
# [2] = molecular target: T1, CDK9/Cyclin K (Homo sapiens, UniProt P50750); assay: LanthaScreen Eu Kinase Binding Assay, CDK9/Cyclin K; conditions: tracer 236, read-out: CDK9/Cyclin K (activity range), Kd
# T1 construct: His; purchased Invitrogen
# Summary of the method: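 TR-FRET displacement of an Alexa Fluor 647 active-site tracer, detected with a Eu anti-GST antibody, over an 8-point 1:3 compound series. Tracer was set at its Kd (30 nM for CDK2/Cyclin A, CDK7 and CDK9/Cyclin T1; 35 nM for CDK9/Cyclin K). Read after 1 h at room temperature; Kd was fitted from sigmoidal curves.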
# T1 sequence (P50750 whole entry): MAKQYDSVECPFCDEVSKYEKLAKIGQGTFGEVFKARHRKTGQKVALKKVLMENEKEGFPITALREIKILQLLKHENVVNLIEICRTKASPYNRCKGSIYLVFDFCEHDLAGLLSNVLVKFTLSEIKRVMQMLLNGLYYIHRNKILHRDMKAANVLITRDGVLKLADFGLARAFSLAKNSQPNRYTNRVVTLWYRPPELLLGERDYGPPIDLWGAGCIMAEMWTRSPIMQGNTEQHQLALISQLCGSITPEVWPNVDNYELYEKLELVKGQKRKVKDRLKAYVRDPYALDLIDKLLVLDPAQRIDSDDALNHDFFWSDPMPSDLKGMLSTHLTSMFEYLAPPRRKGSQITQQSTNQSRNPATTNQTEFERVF
# T1 sequence (O75909 1-357 isoform O75909-1 partner): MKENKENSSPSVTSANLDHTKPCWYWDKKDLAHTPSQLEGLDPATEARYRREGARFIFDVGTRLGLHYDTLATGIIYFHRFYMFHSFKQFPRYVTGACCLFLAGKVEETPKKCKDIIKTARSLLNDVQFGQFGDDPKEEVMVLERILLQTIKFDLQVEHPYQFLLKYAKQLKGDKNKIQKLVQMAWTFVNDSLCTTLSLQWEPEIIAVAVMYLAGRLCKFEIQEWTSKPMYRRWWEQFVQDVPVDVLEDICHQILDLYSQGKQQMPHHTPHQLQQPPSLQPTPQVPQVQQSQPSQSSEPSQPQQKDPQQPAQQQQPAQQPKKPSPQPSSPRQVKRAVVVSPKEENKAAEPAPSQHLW
SMILES,pIC50 [1],pKd [2]
"NS(=O)(=O)Cc1cccc(Nc2ncnc(N3CCCC3c3ccccc3)n2)c1 (racemic) [Compound B33, rac-3-[(4-(2-Phenylpyrrolidin-1-yl)-1,3,5-triazin-2-yl)amino]-benzenemethanesulfonamide]",5.00 to 6.00,> 7.00
"NS(=O)(=O)Cc1cccc(Nc2ncnc(N3CCCCC3)n2)c1 [Compound B1, 3-[(4-(Piperidin-1-yl)-1,3,5-triazin-2-yl)amino]benzenemethane sulfonamide]",< 5.00,6.00 to 7.00
"COC[C@H]1CCCN1c1ncnc(Nc2cccc(CS(N)(=O)=O)c2)n1 [Compound B17, (R)-3-[(4-(2-(Methoxymethyl)pyrrolidin-1-yl)-1,3,5-triazin-2-yl)amino]benzenemethanesulfonamide]",< 5.00,6.00 to 7.00
"COC(=O)[C@H]1CCCN1c1ncnc(Nc2cccc(CS(N)(=O)=O)c2)n1 [Compound B21, (R)-Methyl 1-[4-((3-(Sulfamoylmethyl)phenyl)amino)-1,3,5-triazin-2-yl]pyrrolidine-2-carboxylate]",< 5.00,6.00 to 7.00
"NS(=O)(=O)Cc1cccc(Nc2ncnc(N3CCc4ncccc4C3)n2)c1 [Compound B38, 3-[(4-(7,8-Dihydro-1,6-naphthyridin-6(5H)-yl)-1,3,5-triazin-2-yl)amino]-benzenemethanesulfonamide]",5.00 to 6.00,> 7.00
"NS(=O)(=O)Cc1cccc(Nc2ncnc(N3CCc4nc[nH]c4C3)n2)c1 [Compound B44, 3-[(4-(6,7-Dihydro-3H-imidazo[4,5-c]pyridin-5(4H)-yl)-1,3,5-triazin-2-yl)amino]benzenemethanesulfonamide]",,> 7.00
"NS(=O)(=O)Cc1cccc(Nc2ncnc(N3CCCn4nccc43)n2)c1 [Compound B47, 3-[(4-(6,7-Dihydropyrazolo[1,5-a]pyrimidin-4(5H)-yl)-1,3,5-triazin-2-yl)amino]benzenemethanesulfonamide]",5.00 to 6.00,> 7.00
"NS(=O)(=O)Cc1cccc(Nc2ncnc(N3Cc4cn[nH]c4C3)n2)c1 [Compound B51, 3-[(4-(Pyrrolo[3,4-c]pyrazol-5(1H,4H,6H)-yl)-1,3,5-triazin-2-yl)amino]-benzenemethanesulfonamide]",,> 7.00
